Source: patent publication US12357711B2, “PSMA binding dual mode radiotracer and therapeutic” (Technische Universität München, priority 2019, dated 2025)
“And” between values parts separate entries of the source, which are not always exact repeats. Equal values may be shown once.

Tests used:
human serum albumin = biological target: T1, human serum albumin (Homo sapiens, UniProt P02768); assay: HSA binding on Chiralpak HSA column; assay type: in vitro ADME; conditions: Chiralpak HSA column (50 × 3 mm, 5 μm)
T1 construct: purchased H13H-2433
T1 sequence (P02768 25-609): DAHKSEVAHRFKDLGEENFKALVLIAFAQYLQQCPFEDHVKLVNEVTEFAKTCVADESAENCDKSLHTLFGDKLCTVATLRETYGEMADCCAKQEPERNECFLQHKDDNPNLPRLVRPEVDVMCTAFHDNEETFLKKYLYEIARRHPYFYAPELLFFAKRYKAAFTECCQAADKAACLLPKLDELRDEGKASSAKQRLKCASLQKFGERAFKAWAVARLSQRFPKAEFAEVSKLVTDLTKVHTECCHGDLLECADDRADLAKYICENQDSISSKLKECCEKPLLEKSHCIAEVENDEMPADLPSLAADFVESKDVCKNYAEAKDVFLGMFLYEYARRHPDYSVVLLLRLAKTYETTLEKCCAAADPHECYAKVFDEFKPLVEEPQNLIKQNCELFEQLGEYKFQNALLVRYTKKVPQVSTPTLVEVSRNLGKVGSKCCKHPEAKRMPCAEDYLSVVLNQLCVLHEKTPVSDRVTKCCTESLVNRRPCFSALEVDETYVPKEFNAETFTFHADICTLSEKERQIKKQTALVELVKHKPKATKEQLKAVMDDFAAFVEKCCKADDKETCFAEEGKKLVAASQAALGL
Experimental: The mobile phase (A: NH4OAc, 50 mM in water, pH 7 and B: isopropanol) was freshly prepared for each experiment and only used for one day. The column was kept at room temperature and each run was stopped after detection of the signal to reduce the acquisition time. All substances were dissolved in a 0.5 mg/ml concentration in 50% 2-propanol and 50% 50 mM pH 6.9 ammonium acetate buffer. […] All nine reference substances were injected consecutively to establish a non-linear regression with Origin Pro 2016G.

[1] = test system: LNCaP tumor-bearing SCID mice; assay: Biodistribution at 1 h p.i.; assay type: in vivo
Experimental: FIG. 10: Biodistribution (in % ID/g) of ^18E-labeled rhPSMA tracers at 1 h p.i in LNCaP tumor-bearing SCID mice. Data are expressed as mean±SD (n=4 for rhPSMA7.1, n=5 for 7.2, n=4 for 7.3, n=5 for 7.4 and n=3 for 7-rac).

[2] = Formation of F-18-fluoride / isotopic exchange in mouse urine; assay type: in vitro ADME, mice
Experimental: For in vivo μmetabolism studies, 8-12 MBq (<0.6 nmol) of the respective ^18F-labeled ligand (rhPSMA-7.1-7.4) was injected into the tail vein of female healthy CB17-SCID mice (n=4). Mice were left under anesthesia for 30 min and the urine was collected using a bladder catheter. Urine samples were pooled and centrifuged for 5 min at 9000 rpm to remove suspended solids. The supernatant was directly used for radio-HPLC analysis with the above mentioned conditions. […] Additionally, this experiment was carried out with the addition of excess Na^19F (0.5 μmop and incubation for 2 h with ^18F-labeled rhPSMA-7.3.
For this purpose normal mice were used. Urine samples were collected by means of a catheter over a period of 30 min. The urine was centrifuged and directly subjected to HPLC and TLC.
Consequently, fresh and nonradioactive urine samples collected from normal mice were incubated with [F-18]rhPSMA7.x for various time periods (see legend to FIG. 21).
To further support the hypothesis, 500 nmol cold F-19-fluoride was added to fresh and nonradioactive urine of mice, followed by the addition of [F-18]rhPSMA7.3 and incubation for 2 h. According to the hypothesis, the high concentration of [F-19]fluoride should result in the formation of a significant amount of [F-18]fluoride.

patients = assay: Human biodistribution and uptake in tumor lesions (PET/CT, SUV); assay type: in vivo; conditions: for ratio SUVmax to background, mean / ratio SUVmean to background, mean: human PET/CT, background gluteal muscle
Experimental: Human biodistribution was estimated by analysing clinical ^18F-rhPSMA-7- and ^18F-rhPSMA-7.3-PET/CT exams in 47 and 32 patients, respectively.
The mean and maximum standardized uptake values (SUVmean/SUVmax) were determined for background (gluteal muscle), normal organs (salivary glands, blood pool, lung, liver, spleen, pancreas, duodenum, kidney, bladder, bone) and three representative tumor lesions. Tumor uptake was analyzed in 89 lesions (26 primary tumors/local recurrences, 23 bone, 38 lymph node and 2 visceral metastases) and 63 lesions (14 primary tumors/local recurrences, 30 bone, 18 lymph node and 1 visceral metastases) for ^18F-rhPSMA-7 and ^18F-rhPSMA-7.3, respectively.
Organ-background and Tumor-background ratios were calculated.

[3] = clinical PET/CT, gluteal muscle
[4] = clinical PET/CT, non-diseased bone
[5] = clinical PET/CT, listed as 18F-rhPSMA-7.3

In the case of CC(C)(C)[Si](F)(c1ccc(C(=O)NC[C@@H](NC(=O)CC[C@@H](C(=O)O)N2CCN(CC(=O)[O-])CCN(CC(=O)[O-])CCN(CC(=O)[O-])CC2)C(=O)N[C@H](CCCCNC(=O)CCC(=O)NCCC[C@@H](NC(=O)CC[C@H](NC(=O)N[C@@H](CCC(=O)O)C(=O)O)C(=O)O)C(=O)O)C(=O)O)cc1)C(C)(C)C.[Ga+3] [rhPSMA7.3, [^19F][^natGa]D-Dap-S-DOTAGA-rhPSMA7], the “HSA Binding” value (human serum albumin) was 96.9%, the Biodistribution adrenals [1] was 2.2 ± 0.83 % ID/g and the Biodistribution blood [1] was 0.96 ± 0.24 % ID/g. The Biodistribution bone [1] was 0.38 ± 0.32 % ID/g, the Biodistribution heart [1] was 0.87 ± 0.17 % ID/g and the Biodistribution intestine [1] was 0.35 ± 0.07 % ID/g. For the same compound, the Biodistribution kidneys [1] was 292 ± 45.1 % ID/g, the Biodistribution liver [1] was 0.69 ± 0.13 % ID/g and the Biodistribution lung [1] was 2.2 ± 0.35 % ID/g. The Biodistribution muscle [1] was 0.33 ± 0.15 % ID/g, the Biodistribution pancreas [1] was 0.63 ± 0.44 % ID/g and the Biodistribution spleen [1] was 16.6 ± 2.6 % ID/g. The Biodistribution stomach [1] was 0.44 ± 0.23 % ID/g, the Biodistribution tumor ([1]; LNCaP tumor) was 18.3 ± 7.2 % ID/g and the “radioactivity converted to [F-18]fluoride” value ([2]; fresh nonradioactive mouse urine + 0.5 μmol (500 nmol) cold F-19-fluoride, incubation 2 h) was 98.5%. The “[F-18]rhPSMA7.3 proportion in radioactive urine after addition of 5 nmol [F-19]rhPSMA7-3” value ([2]; room temperature) was 85.8%, the “[F-18]rhPSMA7.3 proportion in radioactive urine before addition of cold tracer” value ([2]; urine with 20.6% [F-18]Fluoride) was 79.4% and the “ratio SUVmax to background, mean” value (patients; bladder) was 3.1. For the same compound, the “ratio SUVmean to background, mean” value (patients; bladder) was 3.1, the “ratio SUVmax to background, mean” value (patients; bloodpool) was 2.8 and the “ratio SUVmean to background, mean” value (patients; bloodpool) was 2.9. The “ratio SUVmax to background, mean” value (patients; bone) was 2.0, the “ratio SUVmean to background, mean” value (patients; bone) was 2.1 and the “SUVmax bladder, max” value (patients; clinical PET/CT) was 6.0. The “SUVmax bladder, mean” value (patients; clinical PET/CT) was 3.1, the “SUVmax bladder, min” value (patients; clinical PET/CT) was 1.1 and the “SUVmax bloodpool, max” value (patients; clinical PET/CT) was 3.9. For the same compound, the “SUVmax bloodpool, mean” value (patients; clinical PET/CT) was 2.8, the “SUVmax bloodpool, min” value (patients; clinical PET/CT) was 1.9 and the “SUVmax duodenum, max” value (patients; clinical PET/CT) was 32.2. The “SUVmax duodenum, mean” value (patients; clinical PET/CT) was 16.4, the “SUVmax duodenum, min” value (patients; clinical PET/CT) was 6.1 and the “SUVmax kidney, max” value (patients; clinical PET/CT) was 99.9. For the same compound, the “SUVmax kidney, mean” value (patients; clinical PET/CT) was 51.9, the “SUVmax kidney, min” value (patients; clinical PET/CT) was 30.9 and the “SUVmax liver, max” value (patients; clinical PET/CT) was 15.4. For the same compound, the “SUVmax liver, mean” value (patients; clinical PET/CT) was 9.7, the “SUVmax liver, min” value (patients; clinical PET/CT) was 4.6 and the “SUVmax lungs, max” value (patients; clinical PET/CT) was 1.9. The “SUVmax lungs, mean” value (patients; clinical PET/CT) was 1.1, the “SUVmax lungs, min” value (patients; clinical PET/CT) was 0.7 and the “SUVmax pancreas, max” value (patients; clinical PET/CT) was 7.8. For the same compound, the “SUVmax pancreas, mean” value (patients; clinical PET/CT) was 4.2, the “SUVmax pancreas, min” value (patients; clinical PET/CT) was 2.4 and the “SUVmax parotic gland, max” value (patients; clinical PET/CT) was 38.3. The “SUVmax parotic gland, mean” value (patients; clinical PET/CT) was 24.6, the “SUVmax parotic gland, min” value (patients; clinical PET/CT) was 11.2 and the “SUVmax spleen, max” value (patients; clinical PET/CT) was 22.5. The “SUVmax spleen, mean” value (patients; clinical PET/CT) was 11.4, the “SUVmax spleen, min” value (patients; clinical PET/CT) was 5.0 and the “SUVmax submandibular gland, max” value (patients; clinical PET/CT) was 47.4. For the same compound, the “SUVmax submandibular gland, mean” value (patients; clinical PET/CT) was 28.4, the “SUVmax submandibular gland, min” value (patients; clinical PET/CT) was 14.6 and the “SUVmean bladder, max” value (patients; clinical PET/CT) was 4.1. For the same compound, the “SUVmean bladder, min” value (patients; clinical PET/CT) was 0.7, the “SUVmean bloodpool, max” value (patients; clinical PET/CT) was 2.5 and the “SUVmean bloodpool, min” value (patients; clinical PET/CT) was 1.3. The “SUVmean duodenum, max” value (patients; clinical PET/CT) was 23.0, the “SUVmean duodenum, mean” value (patients; clinical PET/CT) was 11.0 and the “SUVmean duodenum, min” value (patients; clinical PET/CT) was 3.0. For the same compound, the “SUVmean kidney, max” value (patients; clinical PET/CT) was 70.6, the “SUVmean kidney, mean” value (patients; clinical PET/CT) was 35.5 and the “SUVmean kidney, min” value (patients; clinical PET/CT) was 20.7. For the same compound, the “SUVmean liver, max” value (patients; clinical PET/CT) was 12.3, the “SUVmean liver, mean” value (patients; clinical PET/CT) was 7.3 and the “SUVmean liver, min” value (patients; clinical PET/CT) was 3.2. For the same compound, the “SUVmean lungs, max” value (patients; clinical PET/CT) was 1.1, the “SUVmean lungs, mean” value (patients; clinical PET/CT) was 0.7 and the “SUVmean lungs, min” value (patients; clinical PET/CT) was 0.4. For the same compound, the “SUVmean pancreas, max” value (patients; clinical PET/CT) was 5.2, the “SUVmean pancreas, mean” value (patients; clinical PET/CT) was 2.8 and the “SUVmean pancreas, min” value (patients; clinical PET/CT) was 1.6. For the same compound, the “SUVmean parotic gland, max” value (patients; clinical PET/CT) was 25.0, the “SUVmean parotic gland, mean” value (patients; clinical PET/CT) was 16.0 and the “SUVmean parotic gland, min” value (patients; clinical PET/CT) was 8.2. The “SUVmean spleen, max” value (patients; clinical PET/CT) was 17.9, the “SUVmean spleen, mean” value (patients; clinical PET/CT) was 8.5 and the “SUVmean spleen, min” value (patients; clinical PET/CT) was 3.7. For the same compound, the “SUVmean submandibular gland, max” value (patients; clinical PET/CT) was 33.4, the “SUVmean submandibular gland, mean” value (patients; clinical PET/CT) was 19.6 and the “SUVmean submandibular gland, min” value (patients; clinical PET/CT) was 10.4. The “tracer retention in the bladder compared with ^18F-rhPSMA-7” value (patients; clinical PET/CT) was “significantly lower”, the “uptake in tumor lesions compared with ^18F-rhPSMA-7” value (patients; clinical PET/CT) was “significantly higher” and the “SUVmax background, max” value (patients; [3]) was 1.7. For the same compound, the “SUVmax background, mean” value (patients; [3]) was 1.0, the “SUVmax background, min” value (patients; [3]) was 0.6 and the “SUVmean background, max” value (patients; [3]) was 1.1. The “SUVmean background, mean” value (patients; [3]) was 0.7, the “SUVmean background, min” value (patients; [3]) was 0.4 and the “SUVmax bone, max” value (patients; [4]) was 3.4. For the same compound, the “SUVmax bone, mean” value (patients; [4]) was 2.1, the “SUVmax bone, min” value (patients; [4]) was 1.1 and the “SUVmean bone, max” value (patients; [4]) was 2.2. For the same compound, the “SUVmean bone, mean” value (patients; [4]) was 1.3, the “SUVmean bone, min” value (patients; [4]) was 0.7 and the “SUVmax tumor, max” value (patients; clinical PET/CT, tumor lesions) was 316.0. For the same compound, the “SUVmax tumor, mean” value (patients; clinical PET/CT, tumor lesions) was 44.0, the “SUVmax tumor, min” value (patients; clinical PET/CT, tumor lesions) was 2.4 and the “SUVmean tumor, max” value (patients; clinical PET/CT, tumor lesions) was 224.1. For the same compound, the “SUVmean tumor, min” value (patients; clinical PET/CT, tumor lesions) was 1.6, the “SUVmean tumor, mean” value (patients; clinical PET/CT, tumor lesions, listed as 18F-rhPSMA-7.3) was 32.5±42.7 and 32.5 and the “SUVmean bladder, mean” value (patients; [5]) was 2.0 and 2.0±0.8. For the same compound, the “SUVmean bloodpool, mean” value (patients; [5]) was 1.9 and 1.8, the “ratio SUVmax to background, mean” value (patients; duodenum) was 16.2 and the “ratio SUVmean to background, mean” value (patients; duodenum) was 17.1. The “ratio SUVmax to background, mean” value (patients; kidney) was 51.8, the “ratio SUVmean to background, mean” value (patients; kidney) was 55.6 and the “ratio SUVmax to background, mean” value (patients; liver) was 9.7. The “ratio SUVmean to background, mean” value (patients; liver) was 11.4, the “ratio SUVmax to background, mean” value (patients; lungs) was 1.0 and the “ratio SUVmean to background, mean” value (patients; lungs) was 1.0. The “ratio SUVmax to background, mean” value (patients; pancreas) was 4.1, the “ratio SUVmean to background, mean” value (patients; pancreas) was 4.4 and the “ratio SUVmax to background, mean” value (patients; parotid gland) was 24.7. The “ratio SUVmean to background, mean” value (patients; parotid gland) was 25.2, the “ratio SUVmax to background, mean” value (patients; spleen) was 11.4 and the “ratio SUVmean to background, mean” value (patients; spleen) was 13.3. The “ratio SUVmax to background, mean” value (patients; submandibular gland) was 28.2, the “ratio SUVmean to background, mean” value (patients; submandibular gland) was 30.6 and the “ratio SUVmax to background, mean” value (patients; tumor lesions) was 43.6. The “ratio SUVmean to background, mean” value (patients; tumor lesions) was 50.8.
